The values that follow come from PubChem BioAssay (NCI).

Structures are written as SMILES.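 Five concentrations, 48 hours, 96-well plates. GI50 is the concentration that inhibits growth by half. Definition used: TGI = concentration required for complete inhibition of growth.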 Where only a bound is given, the exact number is not on record here.

Some test systems named below: SK-OV-3 ovarian; UACC-257 melanoma; UACC-62 melanoma; SNB-19 CNS; A498 renal; A549 NSCLC; NCI-H522 lung; HOP-92 NSCLC; SK-MEL-28 melanoma; HCT-116 colon.
What all share (experiment): growth of human tumour cells (NCI), 48 h

For the compound `Nc1ncn(C2OC(COP(=O)(O)O)C(O)C2O)c(=O)n1` (stereo unspecified), the TGI with SK-OV-3 ovarian, in the test with UACC-257 melanoma, in the test with UACC-62 melanoma, in the test with SNB-19 CNS, in the test with A498 renal and with A549 NSCLC was greater than 100 µM in each case. Also, the TGI in the test on NCI-H522 lung, in the test with HOP-92 NSCLC, with SK-MEL-28 melanoma and in the test on HCT-116 colon was greater than 100 µM in each case.
Consider `COc1cccc(-n2ncc3c(N/N=C/c4ccc(C)cc4)ncnc32)c1`, for which the GI50 with SK-OV-3 ovarian is greater than 25 µM; in the test on UACC-257 melanoma it was greater than 21.7 µM; in the test with UACC-62 melanoma it was greater than 25 µM; in the test on SNB-19 CNS it was greater than 25 µM; in the test with A498 renal it was greater than 5.43 µM; in the test with A549 NSCLC it was greater than 25 µM. Also, the GI50 with NCI-H522 lung was greater than 25 µM; with HOP-92 NSCLC, 2.14 µM; in the test with SK-MEL-28 melanoma, greater than 25 µM; with HCT-116 colon, greater than 25 µM. In addition, the TGI in the test with SK-OV-3 ovarian, in the test on UACC-257 melanoma, in the test with UACC-62 melanoma, in the test on SNB-19 CNS, in the test on A498 renal and in the test with A549 NSCLC was greater than 25 µM each time. The TGI in the test with NCI-H522 lung, in the test on HOP-92 NSCLC, in the test on SK-MEL-28 melanoma and in the test on HCT-116 colon was greater than 25 µM in each case.
As to `COc1cccc(OC(=O)c2ccc(C(F)(F)F)nc2Nc2c(C)cccc2Cl)c1`, the GI50 in the test with SK-OV-3 ovarian was 32.9 µM; with UACC-257 melanoma, 33.4 µM; in the test on UACC-62 melanoma, 17.3 µM; in the test on SNB-19 CNS it was 22.4 µM; in the test with A498 renal, 15 µM; in the test on A549 NSCLC it was 22.8 µM. Moreover, the GI50 was 16 µM in the test with NCI-H522 lung, 17.6 µM in the test with HOP-92 NSCLC, 20.5 µM with SK-MEL-28 melanoma and 25.6 µM with HCT-116 colon. The TGI in the test with SK-OV-3 ovarian is greater than 100 µM; with UACC-257 melanoma, greater than 100 µM; with UACC-62 melanoma, 39.4 µM; in the test with SNB-19 CNS, 73.5 µM; in the test on A498 renal, 41.3 µM; in the test on A549 NSCLC it was 58.6 µM. Also, the TGI with NCI-H522 lung is 38.3 µM; with HOP-92 NSCLC, 41.4 µM; with SK-MEL-28 melanoma, 71.6 µM; in the test on HCT-116 colon it was greater than 100 µM.
Consider `CC(=Nc1ccccc1)C1=C(O)C(Cc2cccc(F)c2)NC1=O` (stereo unspecified), for which the GI50 in the test with SK-OV-3 ovarian was 0.0469 µM; with UACC-62 melanoma, 0.0546 µM; in the test with SNB-19 CNS it was 0.156 µM; in the test on A498 renal, 0.0356 µM; with A549 NSCLC, 0.0511 µM; in the test on NCI-H522 lung, 0.0286 µM. Further, the GI50 in the test with HOP-92 NSCLC was 0.0242 µM; with HCT-116 colon, 0.047 µM. For the same compound, the TGI is 1.33 µM in the test with SK-OV-3 ovarian; greater than 100 µM with UACC-62 melanoma; greater than 100 µM in the test with SNB-19 CNS; 0.426 µM with A498 renal; greater than 100 µM with A549 NSCLC; 0.182 µM with NCI-H522 lung. The TGI was greater than 21.1 µM in the test with HOP-92 NSCLC and greater than 39.4 µM in the test on HCT-116 colon.
As to `O=C1NC(=O)C(=Cc2c3ccccc3cc3ccccc23)C(=O)N1`, the TGI in the test with SK-OV-3 ovarian, in the test with UACC-62 melanoma, in the test with SNB-19 CNS, in the test with A498 renal, in the test with A549 NSCLC and in the test on NCI-H522 lung was greater than 100 µM each time. Further, the TGI with HOP-92 NSCLC, in the test on SK-MEL-28 melanoma and with HCT-116 colon was greater than 100 µM throughout.
With `C#CCN(N=O)C(=O)NCCCCC(NC(=O)OCc1ccccc1)C(=O)OCc1ccccc1` (stereo unspecified), the TGI with SK-OV-3 ovarian is greater than 100 µM; in the test on UACC-257 melanoma, greater than 100 µM; with UACC-62 melanoma, greater than 100 µM; in the test on SNB-19 CNS, greater than 100 µM; with A498 renal, greater than 100 µM; with NCI-H522 lung, 30 µM. Further, the TGI with HOP-92 NSCLC was 42.1 µM; in the test on SK-MEL-28 melanoma, greater than 100 µM; with HCT-116 colon, greater than 100 µM.
Turning to `O=C(O)/C=C/c1ccc[c]([Sb](=[O])([OH])[OH])c1`, the GI50 in the test with UACC-257 melanoma, with UACC-62 melanoma, in the test with SNB-19 CNS, in the test on A498 renal, with A549 NSCLC and with NCI-H522 lung was greater than 100 µM in each case. Moreover, the GI50 with HOP-92 NSCLC, in the test with SK-MEL-28 melanoma and with HCT-116 colon was greater than 100 µM each time. Also, the TGI with UACC-257 melanoma, with UACC-62 melanoma, in the test on SNB-19 CNS, with A498 renal, in the test on A549 NSCLC and in the test on NCI-H522 lung was greater than 100 µM throughout. Further, the TGI in the test with HOP-92 NSCLC, in the test on SK-MEL-28 melanoma and in the test with HCT-116 colon was greater than 100 µM in each case.
As to `COc1cccc2c1C(=O)c1c(O)c3c(c(O)c1C2=O)C[C@@](O)(C(C)=O)C[C@@H]3OC1CC([N+]([O-])(Cc2ccccc2)Cc2ccccc2)C(O)C(C)O1` (stereo partly specified), the TGI in the test with SK-OV-3 ovarian amounted to 17.2 µM; in the test on UACC-257 melanoma it was 3.17 µM; with UACC-62 melanoma, 2.83 µM; with SNB-19 CNS, 15.8 µM; with A498 renal it was 8.53 µM; with A549 NSCLC, 5.18 µM. Further, the TGI was found to be 2.68 µM in the test with NCI-H522 lung and 3.14 µM in the test with HOP-92 NSCLC.
In the case of `Cc1ccc(NC(=O)C(=O)C(C(=O)c2ccc3ccccc3c2)C2OC(=O)c3ccccc32)c(C)c1` (stereo unspecified), the TGI was 60.4 µM with SK-OV-3 ovarian; 41.4 µM with UACC-257 melanoma; 17.3 µM with UACC-62 melanoma; 20 µM in the test on A498 renal; 62.8 µM with A549 NSCLC; 31.3 µM in the test with NCI-H522 lung. Also, the results for the TGI in the test on HOP-92 NSCLC, in the test on SK-MEL-28 melanoma and with HCT-116 colon were 27.8 µM, 31.2 µM and 20.1 µM, respectively.
Regarding `O=C1Nc2ccccc2/C1=C\c1cccc(/C=C2/C(=O)Nc3ccccc32)n1`, the GI50 in the test with SK-OV-3 ovarian was 1.21 µM; in the test with UACC-257 melanoma it was 0.241 µM; in the test on UACC-62 melanoma, 0.32 µM; with SNB-19 CNS, 0.526 µM; in the test on A498 renal, 1.5 µM; in the test with NCI-H522 lung, 0.208 µM. In addition, the results for the GI50 in the test with HOP-92 NSCLC, in the test with SK-MEL-28 melanoma and in the test on HCT-116 colon were 1.48 µM, 0.218 µM and 0.155 µM, respectively. The TGI in the test on SK-OV-3 ovarian was 2.76 µM; in the test on UACC-257 melanoma, 0.633 µM; with UACC-62 melanoma, 0.962 µM; in the test with SNB-19 CNS, 1.98 µM; with A498 renal, 2.9 µM; in the test with NCI-H522 lung it was 0.705 µM. The TGI with HOP-92 NSCLC stood at 4.49 µM; in the test on SK-MEL-28 melanoma, 0.468 µM; with HCT-116 colon it was 0.296 µM.
For the compound `O=C(O)CNc1ccc(Cl)c(Cl)c1`, the TGI with SK-OV-3 ovarian is greater than 100 µM; in the test with UACC-257 melanoma it was 96.3 µM; in the test on UACC-62 melanoma it was 90.4 µM; in the test with SNB-19 CNS, greater than 100 µM; with A498 renal, 86.5 µM; in the test on A549 NSCLC it was greater than 100 µM. Further, the TGI is 38 µM in the test with NCI-H522 lung, 51.6 µM in the test on HOP-92 NSCLC and 44.7 µM in the test with HCT-116 colon.
